These results are taken from patent publication US20050197350A1, “Novel quinoline, tetrahydroquinazoline, and pyrimidine derivatives and methods of treatment related to the use thereof” (TAISHO PHARMACEUTICAL CO., LTD., priority 2003, published 2005).

One test has as its system MCH receptors. Briefly: MCH receptor activity class (method not given). The note with it: MCH receptor activity class 1-3 (percent of control at 10^-7 M or IC50).
On to `CN(C)c1ccnc(N[C@H]2CC[C@@H](NC(=S)NC3CC4CCC3C4)CC2)n1` (relative stereo) [compound 2355], for which the class is listed as 3 (Class 3 The value of percent of control at 10^−7 M was more than 60% or the value of IC50 was more than 200 nM.).
In the case of `CN(C)c1ccnc(N[C@H]2CC[C@@H](NC(=S)NCc3cccc4ccccc34)CC2)n1` [compound 2332], the class is 3 (Class 3 The value of percent of control at 10^−7 M was more than 60% or the value of IC50 was more than 200 nM.).
On to `COC(=O)c1scc(C)c1NC(=S)N[C@H]1CC[C@@H](Nc2nccc(N(C)C)n2)CC1` [compound 2356], for which the class is 3 (Class 3 The value of percent of control at 10^−7 M was more than 60% or the value of IC50 was more than 200 nM.).

The same test, now with this note: MCH receptor; class by percent of control at 10^-7 M or IC50.
In the case of `CN(C)c1cc(N[C@H]2CC[C@@H](CNC(=O)CSc3ccccc3)CC2)nc2ccccc12` [compound 190], the class is 3 (Class 3 The value of percent of control at 10^−7 M was more than 60% or the value of IC50 was more than 200 nM.).
For `CN(C)c1cc(N[C@H]2CC[C@@H](NC(=O)c3cccc(C(F)(F)F)c3F)CC2)nc2ccccc12` [compound 64], the class was 3 (Class 3 The value of percent of control at 10^−7 M was more than 60% or the value of IC50 was more than 200 nM.).
As to `CN(C)c1nc(N[C@H]2CC[C@@H](NC(=S)Nc3ccccc3OC(F)(F)F)CC2)nc2c1CCCC2` [compound 1968], the class is 3 (Class 3 The value of percent of control at 10^−7 M was more than 60% or the value of IC50 was more than 200 nM.).
In the case of `COc1ccc(CC(=O)N[C@H]2CC[C@@H](Nc3cc(N(C)C)c4ccccc4n3)CC2)cc1` [compound 69], the class is 3 (Class 3 The value of percent of control at 10^−7 M was more than 60% or the value of IC50 was more than 200 nM.).

Staying with this test, now noted: activity class 1-3: percent of control at 10^-7 M or IC50.
As for `CN(C)c1ccnc(N[C@H]2CC[C@@H](CNCCCOc3ccccc3)CC2)n1` [compound 1532], the class was 3 (Class 3 The value of percent of control at 10^−7 M was more than 60% or the value of IC50 was more than 200 nM.).
With `Cc1ccc(OC(=O)NC[C@H]2CC[C@@H](Nc3nc4c(c(N(C)C)n3)CCCC4)CC2)cc1` [compound 1614], the class is reported as 3 (Class 3 The value of percent of control at 10^−7 M was more than 60% or the value of IC50 was more than 200 nM.).
`CN(C)c1nc(N[C@H]2CC[C@@H](NC(=O)Nc3c(Cl)cc(Cl)cc3Cl)CC2)nc2c1CCCC2` [compound 1669]: the class is 2 (Class 2: The value of percent of control at 10^−7 M was from 40% to 60% or the value of IC′50 was from 50 nM to 200 nM.).

The test is the same for the next values; noted with them: activity class per percent of control at 10^-7 M or IC50.
As to `CN(C)c1nc(N[C@H]2CC[C@@H](NC(=O)c3cc(Cl)ccc3O)CC2)nc2c1CCCC2` [compound 1055], the class is given as 1 (Class 1: The value of percent of control at 10^−7 M was less than 40% or the value of IC50 was less than 50 nM.).

The same test, now with this note: class by percent of control at 10^-7 M or IC50.
For `CCOC(=O)c1cccc(NC(=S)N[C@H]2CC[C@@H](Nc3nc4c(c(N(C)C)n3)CCCC4)CC2)c1` [Example 1773], the class is 3 (Class 3 The value of percent of control at 10^−7 M was more than 60% or the value of IC50 was more than 200 nM.).
On to `COc1ccc(NC(=O)N[C@H]2CC[C@@H](Nc3cc(N(C)C)c4ccccc4n3)CC2)cc1OC` [compound 2150], for which the class is recorded as 3 (Class 3 The value of percent of control at 10^−7 M was more than 60% or the value of IC50 was more than 200 nM.).
`CN(C)c1ccnc(N[C@H]2CC[C@@H](CNC(=O)c3cn(Cc4ccccc4)c4ccccc34)CC2)n1` [compound 942]: the class is 3 (Class 3 The value of percent of control at 10^−7 M was more than 60% or the value of IC50 was more than 200 nM.).
Regarding `CC(C(=O)N[C@H]1CC[C@@H](Nc2nccc(N(C)C)n2)CC1)c1ccc(C(=O)c2cccs2)cc1` (relative stereo) [compound 884, N-(cis-4-{[4-(dimethylamino)pyrimidin-2-yl]amino}cyclohexyl)-2-[4-(2-thienylcarbonyl)phenyl]propanamide], the class was 2 (Class 2: The value of percent of control at 10^−7 M was from 40% to 60% or the value of IC′50 was from 50 nM to 200 nM.).
`Cc1ccc2occ(CN[C@H]3CC[C@@H](Nc4nccc(N(C)C)n4)CC3)c(=O)c2c1` [compound 1227, 3-{[(cis-4-{[4-(dimethylamino)pyrimidin-2-yl]amino}-cylohexyl}-amino]methyl}-6-methyl-4H-chromen-4-one]: the class is listed as 3 (Class 3 The value of percent of control at 10^−7 M was more than 60% or the value of IC50 was more than 200 nM.).
With `Cc1ccc(Cl)c(C(=O)NC[C@H]2CC[C@@H](Nc3cc(N(C)C)c4ccccc4n3)CC2)c1F` [compound 235], the class was 3 (Class 3 The value of percent of control at 10^−7 M was more than 60% or the value of IC50 was more than 200 nM.).
As for `CN(C)c1nc(N[C@H]2CC[C@@H](NC(=O)Nc3ccc(F)c([N+](=O)[O-])c3)CC2)nc2c1CCCC2` [compound 1826], the class is reported as 3 (Class 3 The value of percent of control at 10^−7 M was more than 60% or the value of IC50 was more than 200 nM.).
On to `CN(C)c1cc(N[C@H]2CC[C@@H](NC(=O)c3ccccc3-c3ccccc3)CC2)nc2ccccc12` [compound 755], for which the class is given as 3 (Class 3 The value of percent of control at 10^−7 M was more than 60% or the value of IC50 was more than 200 nM.).
The same measure, in the same setting: under `CN(C)c1ccnc(N[C@H]2CC[C@@H](CNC(=O)c3cccc(Cl)c3F)CC2)n1` [compound 404] stands 3 (Class 3 The value of percent of control at 10^−7 M was more than 60% or the value of IC50 was more than 200 nM.).
As for `CN(C)c1ccnc(N[C@H]2CC[C@@H](CNCc3ccc(O)cc3Cl)CC2)n1` [compound 1267], the class is given as 3 (Class 3 The value of percent of control at 10^−7 M was more than 60% or the value of IC50 was more than 200 nM.).
Take `CN(C)c1ccnc(N[C@H]2CC[C@@H](CNC(=O)c3cc(F)cc(C(F)(F)F)c3)CC2)n1` [compound 383]: the class was 3 (Class 3 The value of percent of control at 10^−7 M was more than 60% or the value of IC50 was more than 200 nM.).
For the molecule `Cc1cc(C)c(CCNC[C@H]2CC[C@@H](Nc3cc(N(C)C)c4ccccc4n3)CC2)c(C)c1` [compound 1466], the class was 3 (Class 3 The value of percent of control at 10^−7 M was more than 60% or the value of IC50 was more than 200 nM.).
Regarding `CN(C)c1nc(N[C@H]2CC[C@@H](CNC(=O)Nc3c(Cl)cccc3Cl)CC2)nc2c1CCCC2` [compound 2491, N-(2,6-dichlorophenyl)-N′-[(cis-4-{[4-(dimethylamino)-5,6,7,8-tetrahydroquinazolin-2-yl]amino}cyclohexyl)methyl]urea], the class is 1 (Class 1: The value of percent of control at 10^−7 M was less than 40% or the value of IC50 was less than 50 nM.).
Take `Cc1noc(-c2ccccc2)c1NC(=O)N[C@H]1CC[C@@H](Nc2nccc(N(C)C)n2)CC1` [compound 2211]: the class is 3 (Class 3 The value of percent of control at 10^−7 M was more than 60% or the value of IC50 was more than 200 nM.).
With `CN(C)c1ccnc(N[C@H]2CC[C@@H](NC(=O)Nc3ccc4c(c3)OCCO4)CC2)n1` [compound 2251], the class is given as 3 (Class 3 The value of percent of control at 10^−7 M was more than 60% or the value of IC50 was more than 200 nM.).
With `CC(Oc1ccccc1)C(=O)NC[C@H]1CC[C@@H](Nc2nccc(N(C)C)n2)CC1` (relative stereo) [compound 394], the class is 3 (Class 3 The value of percent of control at 10^−7 M was more than 60% or the value of IC50 was more than 200 nM.).
Regarding `CC(C)c1ccc(NC(=O)N[C@H]2CC[C@@H](Nc3nc4c(c(N(C)C)n3)CCCC4)CC2)cc1` [compound 1829], the class was 3 (Class 3 The value of percent of control at 10^−7 M was more than 60% or the value of IC50 was more than 200 nM.).
Turning to `CN(C)c1ccnc(N[C@H]2CC[C@@H](NC(=O)Cc3ccccc3Br)CC2)n1` [compound 298], the class is 3 (Class 3 The value of percent of control at 10^−7 M was more than 60% or the value of IC50 was more than 200 nM.).
For the molecule `C[C@H](CN[C@H]1CC[C@@H](Nc2cc(N(C)C)c3ccccc3n2)CC1)c1cccc(C(O)c2ccccc2)c1` (stereo partly drawn) [compound 1461], the class is reported as 3 (Class 3 The value of percent of control at 10^−7 M was more than 60% or the value of IC50 was more than 200 nM.).
As to `Cc1ccc([N+](=O)[O-])cc1NC(=O)N[C@H]1CC[C@@H](Nc2nc3c(c(N(C)C)n2)CCCC3)CC1` [compound 1715], the class is 3 (Class 3 The value of percent of control at 10^−7 M was more than 60% or the value of IC50 was more than 200 nM.).

Staying with this test, now noted: class by percent of control at 10^−7 M or IC50.
On to `COc1ccc(CN[C@H]2CC[C@@H](Nc3ncc(C)c(N(C)C)n3)CC2)cc1C` [compound 3003], for which the class is given as 3 (Class 3 The value of percent of control at 10^−7 M was more than 60% or the value of IC50 was more than 200 nM.).
With `Cc1ccc([C@H](C)NC(=O)[C@H]2CC[C@@H](Nc3ncc(C)c(N(C)C)n3)CC2)cc1` [compound 2772, cis-4-{[4-(dimethylamino)-5-methylpyrimidin-2-yl]amino}-N-[(1S)-1-(4-methylphenyl)ethyl]cyclohexanecarboxamide], the class is recorded as 1 (Class 1: The value of percent of control at 10^−7 M was less than 40% or the value of IC50 was less than 50 nM.).
As to `Cc1nc(N[C@H]2CC[C@@H](NC(=O)c3ccc(O)nc3)CC2)nc(N(C)C)c1C` [compound 2827], the class is given as 3 (Class 3 The value of percent of control at 10^−7 M was more than 60% or the value of IC50 was more than 200 nM.).
As to `Cc1cc(C)cc(C(=O)N[C@H]2CC[C@@H](Nc3ncc(C)c(N(C)C)n3)CC2)c1` [compound 2934], the class is listed as 1 (Class 1: The value of percent of control at 10^−7 M was less than 40% or the value of IC50 was less than 50 nM.).
`Cc1cc(N(C)C)nc(N[C@H]2CC[C@@H](NC(=O)c3ccc(F)c(C)c3)CC2)n1` [compound 2964, N-(cis-4-{[4-(dimethylamino)-6-methylpyrimidin-2-yl]amino}cyclohexyl)-4-fluoro-3-methylbenzamide]: the class is listed as 1 (Class 1: The value of percent of control at 10^−7 M was less than 40% or the value of IC50 was less than 50 nM.).
